Experiment: pharmacokinetics of etoricoxib compared to traditional NSAIDs
Assay type: in vivo
Conditions: as compared to traditional NSAIDs such as naproxen

half-life: longer
time to maximum concentration: shorter
Structure (SMILES): Cc1ccc(-c2ncc(Cl)cc2-c2ccc(S(C)(=O)=O)cc2)cn1 [Etoricoxib, etoricoxib]

Reference: patent US20040132780A1, “Method and compositions for treating migraines” (priority 2001, published 2004)
